From patent US6485742B1, “Process for producing coated preparation and its use” (BASF Aktiengesellschaft, priority 1999, dated 2002)

Assay: Change in appearance (browning) of filled gelatin capsules on storage
Assay type: physicochemical
Conditions: 0.4 g in gelatin capsules, sealed glass bottle, 40° C. for 30 days
Experimental: Each (0.4 g) of calcium L-ascorbate and the coated calcium L-ascorbate (70% L-ascorbate content) produced in Example 4 was filled in gelatin capsules (manufactured by Warner-Lambert Company, body volume 0.68 ml) and the capsules were placed in a transparent glass bottle. The bottle was sealed and stored in an incubator at 40° C. for 30 days to observe the change in appearances.

With calcium L-ascorbate as the substance, how does the “Browning of filled gelatin capsules (change in appearance)” value read?
The value was “severe browning”.
